Test results reported in patent publication US20240269139A1, “COMPOUNDS FOR TARGETED PROTEIN DEGRADATION OF KINASES” (DANA-FARBER CANCER INSTITUTE, INC., priority 2020, published 2024).
Like-named read-outs stand apart in the source and are kept apart here.

Experiments:
Format in all cases: cell-based
[1] = target: protein kinases (human kinome) (Homo sapiens, UniProt Q00535); details: for logFC of CDK5: Accession Q00535
[2] = target: protein kinases (human kinome) (Homo sapiens, UniProt Q13233)
Chain of protein kinases (human kinome) (Homo sapiens, UniProt Q13233) (Q13233 whole entry): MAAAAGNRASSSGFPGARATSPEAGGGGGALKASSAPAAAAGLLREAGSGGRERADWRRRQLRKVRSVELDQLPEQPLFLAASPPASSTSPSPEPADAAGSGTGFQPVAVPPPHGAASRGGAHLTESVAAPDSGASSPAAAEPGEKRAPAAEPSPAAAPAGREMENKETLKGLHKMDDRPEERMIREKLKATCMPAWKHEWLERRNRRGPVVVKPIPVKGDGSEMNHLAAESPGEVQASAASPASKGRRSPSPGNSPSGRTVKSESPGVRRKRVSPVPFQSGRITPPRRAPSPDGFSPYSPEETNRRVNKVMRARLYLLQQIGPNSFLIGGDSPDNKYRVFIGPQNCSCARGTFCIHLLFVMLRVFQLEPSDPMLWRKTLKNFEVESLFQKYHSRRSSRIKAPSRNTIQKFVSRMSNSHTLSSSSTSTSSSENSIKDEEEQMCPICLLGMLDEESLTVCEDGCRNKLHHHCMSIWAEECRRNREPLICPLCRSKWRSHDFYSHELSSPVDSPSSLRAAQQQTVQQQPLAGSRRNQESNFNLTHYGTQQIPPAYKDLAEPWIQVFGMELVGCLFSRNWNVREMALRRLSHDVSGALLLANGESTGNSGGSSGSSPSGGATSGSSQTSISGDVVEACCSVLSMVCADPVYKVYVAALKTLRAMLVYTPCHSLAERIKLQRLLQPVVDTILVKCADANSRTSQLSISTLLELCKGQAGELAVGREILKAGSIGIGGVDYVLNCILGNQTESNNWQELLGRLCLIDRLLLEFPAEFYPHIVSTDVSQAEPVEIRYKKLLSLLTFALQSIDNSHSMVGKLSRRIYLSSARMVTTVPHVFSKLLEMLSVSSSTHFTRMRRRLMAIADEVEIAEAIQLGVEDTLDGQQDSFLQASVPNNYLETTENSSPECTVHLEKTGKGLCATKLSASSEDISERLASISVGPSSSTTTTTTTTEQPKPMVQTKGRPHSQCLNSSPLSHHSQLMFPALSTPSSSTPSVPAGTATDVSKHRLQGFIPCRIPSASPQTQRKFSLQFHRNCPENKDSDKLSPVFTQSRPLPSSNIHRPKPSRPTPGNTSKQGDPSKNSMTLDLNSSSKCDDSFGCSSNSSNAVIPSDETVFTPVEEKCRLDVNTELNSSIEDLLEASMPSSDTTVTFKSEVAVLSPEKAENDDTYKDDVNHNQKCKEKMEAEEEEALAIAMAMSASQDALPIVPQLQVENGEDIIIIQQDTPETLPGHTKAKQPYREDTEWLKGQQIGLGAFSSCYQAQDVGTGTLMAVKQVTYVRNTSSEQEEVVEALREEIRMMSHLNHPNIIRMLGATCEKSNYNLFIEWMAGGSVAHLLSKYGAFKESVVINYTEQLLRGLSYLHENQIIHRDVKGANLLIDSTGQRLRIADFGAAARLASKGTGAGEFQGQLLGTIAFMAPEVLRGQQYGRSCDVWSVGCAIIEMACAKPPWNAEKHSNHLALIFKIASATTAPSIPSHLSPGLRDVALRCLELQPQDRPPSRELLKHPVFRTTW

[3] = target: T1, protein kinases (human kinome) (Homo sapiens, UniProt Q96L34); details: for logFC MARK4: Accession Q96L34-1
T1 sequence (Q96L34 1-752): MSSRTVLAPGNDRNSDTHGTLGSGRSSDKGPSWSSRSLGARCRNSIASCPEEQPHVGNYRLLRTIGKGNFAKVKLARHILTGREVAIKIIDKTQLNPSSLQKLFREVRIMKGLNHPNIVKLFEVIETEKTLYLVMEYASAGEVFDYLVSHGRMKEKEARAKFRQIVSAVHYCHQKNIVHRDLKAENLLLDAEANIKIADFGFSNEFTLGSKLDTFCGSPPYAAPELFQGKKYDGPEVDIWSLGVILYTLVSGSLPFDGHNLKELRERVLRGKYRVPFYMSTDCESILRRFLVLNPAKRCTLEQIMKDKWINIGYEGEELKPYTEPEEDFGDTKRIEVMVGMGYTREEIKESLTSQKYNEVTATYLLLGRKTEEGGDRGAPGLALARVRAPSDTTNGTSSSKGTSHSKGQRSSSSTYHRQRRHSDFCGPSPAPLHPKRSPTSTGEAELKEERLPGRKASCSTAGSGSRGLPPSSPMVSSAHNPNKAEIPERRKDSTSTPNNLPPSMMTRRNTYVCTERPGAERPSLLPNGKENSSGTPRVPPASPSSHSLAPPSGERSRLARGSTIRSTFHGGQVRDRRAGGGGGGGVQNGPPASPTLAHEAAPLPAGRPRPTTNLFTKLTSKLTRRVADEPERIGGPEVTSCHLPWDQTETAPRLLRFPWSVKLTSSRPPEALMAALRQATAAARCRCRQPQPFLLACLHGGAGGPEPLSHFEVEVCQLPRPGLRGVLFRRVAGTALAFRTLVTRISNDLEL

Chain of protein kinases (human kinome) (Homo sapiens, UniProt Q00535) (Q00535 whole entry): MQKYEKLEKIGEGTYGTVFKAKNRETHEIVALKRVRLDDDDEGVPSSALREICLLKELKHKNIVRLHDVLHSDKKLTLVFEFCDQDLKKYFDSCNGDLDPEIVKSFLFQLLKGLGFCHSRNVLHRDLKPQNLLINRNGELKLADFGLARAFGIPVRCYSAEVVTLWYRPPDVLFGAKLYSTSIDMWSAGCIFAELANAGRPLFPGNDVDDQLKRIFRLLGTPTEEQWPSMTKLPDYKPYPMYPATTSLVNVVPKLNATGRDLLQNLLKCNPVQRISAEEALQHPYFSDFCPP

## CC(C)S(=O)(=O)c1ccccc1Nc1nc(Nc2ccc(N3CCN(CCOCCNC(=O)CNc4ccc5c(c4)C(=O)N(C4CCC(=O)NC4=O)C5=O)CC3)cc2)ncc1Cl (stereo not drawn) [SK.3.93]
[1]; experiment wp016
  logFC of CDK5: −0.9703
[1]; experiment wp016, direction of change down
  logFC CDK5 (Q00535): −0.9703

## NC(=O)c1c(F)cccc1Nc1nc(Nc2ccc(S(=O)(=O)NCCOCCOCCOCCOCCNc3cccc4c3C(=O)N(C3CCC(=O)NC3=O)C4=O)cc2)ncc1Br (stereo not drawn) [TMX.02.138]
[1]; experiment wp146
  logFC CDK5 (Q00535): −3.29
[1]; experiment wp146, direction of change down
  logFC CDK5 (Q00535): −3.29

## Cc1ccc(C(=O)Nc2ccc(CN3CCN(CCOCCOCCNC(=O)CNc4cccc5c4C(=O)N(C4CCC(=O)NC4=O)C5=O)CC3)c(C(F)(F)F)c2)cc1C#Cc1cnc2cccnn12 (stereo not drawn) [TL13.150]
[1]; experiment wp081
  logFC of CDK5: −0.3786
[1]; experiment wp081, direction of change down
  logFC CDK5 (Q00535): −0.3786

## Cc1ccc(NC(=O)c2cccc(C(F)(F)F)c2)cc1N1Cc2cnc(Nc3ccc(N4CCN(CCCOc5cccc6c5C(=O)N(C5CCC(=O)NC5=O)C6=O)CC4)nc3)nc2N(C)C1=O (stereo not drawn) [DB0662]
[2]; Accession Q13233, experiment wp168, direction down
  logFC MAP3K1: −0.7087
[2]; MAP3K1 (Q13233), experiment wp168
  logFC MAP3K1: −0.7087

## Cc1ncsc1-c1ccc([C@H](C)NC(=O)[C@@H]2C[C@@H](O)CN2C(=O)[C@@H](NC(=O)CCOCCOCCN2CCN(c3ccc(Nc4ncc(Cl)c(Nc5ccccc5S(=O)(=O)C(C)C)n4)cc3)CC2)C(C)(C)C)cc1 [FMF.06.098.1]
[3]; experiment wp108
  logFC MARK4: −0.9041
[3]; experiment wp114
  logFC MARK4: −0.7224
  logFC MARK4 (Q96L34-1): −0.7224
[3]; experiment wp131
  logFC MARK4: −1.111
  logFC MARK4 (Q96L34-1): −1.111
[3]; Experiment wp108
  logFC MARK4 (Q96L34-1): −0.9041

## Nc1ncc(-c2ccc(S(=O)(=O)N(CCCNC(=O)CCOCCOCCOCCOCCOCCNc3cccc4c3C(=O)N(C3CCC(=O)NC3=O)C4=O)C3CC3)cc2)cc1-c1ccc2c(c1)CCNC2=O (stereo not drawn) [WH.10417.099]
[2]; Accession Q13233, experiment wp056, direction down
  logFC MAP3K1: −0.5034
[2]; Accession Q13233, experiment wp107, direction down
  logFC MAP3K1: −0.4673
[2]; MAP3K1 (Q13233), experiment wp056
  logFC MAP3K1: −0.5034
[2]; MAP3K1 (Q13233), experiment wp107
  logFC MAP3K1: −0.4673

## Cc1ncsc1-c1ccc([C@H](C)NC(=O)[C@@H]2C[C@@H](O)CN2C(=O)[C@@H](NC(=O)CCCCCN2CCc3cc(Nc4ncc(C5CC5)c(NCCCNC(=O)C5CCC5)n4)ccc3C2)C(C)(C)C)cc1 [BSJ.05.026]
[3]; experiment wp195
  logFC MARK4: −1.571
[3]; Experiment wp195
  logFC MARK4 (Q96L34-1): −1.571

## Cc1ncsc1-c1ccc([C@H](C)NC(=O)[C@@H]2C[C@@H](O)CN2C(=O)[C@@H](NC(=O)CCCCCN2CCN(c3ccc(Nc4ncc5scc(-c6cccc(NS(C)(=O)=O)c6)c5n4)cc3)CC2)C(C)(C)C)cc1 [RSS0680, (2S,4R)-1-((S)-3,3-Dimethyl-2-(6-(4-(4-((7-(3-(methylsulfonamido)phenyl)thieno[3,2-d]pyrimidin-2-yl)amino)phenyl)piperazin-1-yl)hexanamido)butanoyl)-4-hydroxy-N—((S)-1-(4-(4-methylthiazol-5yl)phenyl)ethyl)pyrrolidine-2-carboxamide]
[3]; experiment wp080
  logFC MARK4: −0.4537
  logFC MARK4 (Q96L34-1): −0.4537

## O=C1CCC(N2C(=O)c3cccc(NCCCCCCCCN4CCC(NC(=O)c5[nH]ncc5NC(=O)c5c(Cl)cccc5Cl)CC4)c3C2=O)C(=O)N1 (stereo not drawn) [MFH.5.126.1]
[2]; Accession Q13233, experiment wp076, direction down
  logFC MAP3K1: −0.5947
[2]; MAP3K1 (Q13233), experiment wp076
  logFC MAP3K1: −0.5947
